The test deals with T1, STING (Homo sapiens, UniProt Q86WV6, G230A/H232R/R293Q/R71H).
T1 construct: host or cells: THP1-Dual KO-IFNAR2 cells
T1 sequence (Q86WV6 whole entry R71H/G230A/H232R/R293Q): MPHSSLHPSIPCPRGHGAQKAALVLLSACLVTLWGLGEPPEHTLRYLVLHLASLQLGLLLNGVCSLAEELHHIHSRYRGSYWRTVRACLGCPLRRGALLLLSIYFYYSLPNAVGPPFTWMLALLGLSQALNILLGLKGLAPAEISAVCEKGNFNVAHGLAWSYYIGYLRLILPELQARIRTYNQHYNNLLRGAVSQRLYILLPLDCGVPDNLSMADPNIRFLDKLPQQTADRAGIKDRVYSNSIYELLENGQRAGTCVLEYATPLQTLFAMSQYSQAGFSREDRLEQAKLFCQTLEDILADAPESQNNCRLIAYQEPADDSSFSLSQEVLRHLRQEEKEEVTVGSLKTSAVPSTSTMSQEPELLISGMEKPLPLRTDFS
The test is described as follows: STING reporter assay in THP1-Dual KO-IFNAR2 cells (luciferase reporter, 2′3′cGAMP stimulation). Format: cell-based. Conditions: 2′3′cGAMP 15 μM, 24 h, luciferase reporter activity, GeoMean, read-out: Pharmaron, THP1_IFNAR2 STING 24 h Luci Normalized: GeoMean EC50. As to the method:
STING pathway activation by the compounds described herein was measured using THP1-Dual™ cells (KO-IFNAR2).
THP1-Dual™ KO-IFNAR2 Cells (obtained from invivogen) were maintained in RPMI, 10% FCS, 5 ml P/S, 2 mM L-glut, 10 mM Hepes, and 1 mM sodium pyruvate. Compounds were spotted in empty 384 well tissue culture plates (Greiner 781182) by Echo for a final concentration of 0.0017-100 μM. Cells were plated into the TC plates at 40 μL per well, 2×10E6 cells/mL. For activation with STING ligand, 2′3′cGAMP (MW 718.38, obtained from Invivogen), was prepared in Optimem media.
The following solutions were prepared for each 1×384 plate: • Solution A: 2 mL Optimem with one of the following stimuli: • […] of 10 mM 2′3′cGAMP→150 μM stock • Solution B: 2 mL Optimem with 60 μL Lipofectamine 2000→Incubate 5 min at RT • 2 mL of solution A and 2 ml Solution B was mixed and incubated for 20 min at room temperature (RT). 20 μL of transfection solution (A+B) was added on top of the plated cells, with a final 2′3′cGAMP concentration of 15 μM. The plates were then centrifuged immediately at 340 g for 1 minute, after which they were incubated at 37° C., 5% CO2, >98% humidity for 24 h. Luciferase reporter activity was then measured. EC50 values were calculated by using standard methods known in the art.
Luciferase reporter assay: 10 μL of supernatant from the assay was transferred to white 384-plate with flat bottom and squared wells. One pouch of QUANTI-Luc™ Plus was dissolved in 25 mL of water. 100 μL of QLC Stabilizer per 25 mL of QUANTI-Luc™ Plus solution was added. 50 μL of QUANTI-Luc™ Plus/QLC solution per well was then added. Luminescence was measured on a Platereader (e.g., Spectramax I3X (Molecular Devices GF3637001)).
Luciferase reporter activity was then measured. EC50 values were calculated by using standard methods known in the art.
One may read the EC50 as the concentration giving half of the maximal effect. On to `O=S(=O)(Nc1c[nH]c2ccc(CCOc3ccc(C(F)(F)F)cc3)cc12)c1cccc(Cl)n1` [Compound 104, 6-chloro-N-(5-(2-(4-(trifluoromethyl)phenoxy)ethyl)-1H-indol-3-yl)pyridine-2-sulfonamide], for which the EC50 is 200 to 1000 nM.

In the case of `O=S(=O)(Nc1c[nH]c2ccc(CCOc3ccc(C(F)(F)F)cc3)cc12)C1CCOCC1` [Compound 105, N-(5-(2-(4-(trifluoromethyl)phenoxy)ethyl)-1H-indol-3-yl)tetrahydro-2H-pyran-4-sulfonamide], the EC50 fell in the range of 200 to 1000 nM.

For `O=S(=O)(CCC(F)(F)F)Nc1c[nH]c2ccc(CCOc3ccc(C(F)(F)F)cc3)cc12` [Compound 106, 3,3,3-trifluoro-N-(5-(2-(4-(trifluoromethyl)phenoxy)ethyl)-1H-indol-3-yl)propane-1-sulfonamide], the EC50 lay within 40 to 200 nM.

In the case of `Cn1ccc(S(=O)(=O)Nc2c[nH]c3ccc(CCOc4ccc(C(F)(F)F)cc4)cc23)n1` [Compound 107, 1-methyl-N-(5-(2-(4-(trifluoromethyl)phenoxy)ethyl)-1H-indol-3-yl)-1H-pyrazole-3-sulfonamide], the EC50 lay within 200 to 1000 nM.

`O=S(=O)(CC1CCOCC1)Nc1c[nH]c2ccc(CCOc3ccc(C(F)(F)F)cc3)cc12` [Compound 108, 1-(tetrahydro-2H-pyran-4-yl)-N-(5-(2-(4-(trifluoromethyl)phenoxy)ethyl)-1H-indol-3-yl)methanesulfonamide]: the EC50 lay within 200 to 1000 nM.

For the compound `COCCS(=O)(=O)Nc1c[nH]c2ccc(CCOc3ccc(C(F)(F)F)cc3)cc12` [Compound 109, 2-methoxy-N-(5-(2-(4-(trifluoromethyl)phenoxy)ethyl)-1H-indol-3-yl)ethane-1-sulfonamide], the EC50 was 200 to 1000 nM.

As to `Cn1cc(S(=O)(=O)Nc2c[nH]c3ccc(OCCc4ccc(C(F)(F)F)cc4)cc23)cn1` [Compound 110, 1-methyl-N-(5-(4-(trifluoromethyl)phenethoxy)-1H-indol-3-yl)-1H-pyrazole-4-sulfonamide], the EC50 lay within 40 to 200 nM.

In the case of `Cn1cnc(S(=O)(=O)Nc2c[nH]c3ccc(CCOc4ccc(C(F)(F)F)cc4)cc23)c1` [Compound 111, 1-methyl-N-(5-(2-(4-(trifluoromethyl)phenoxy)ethyl)-1H-indol-3-yl)-1H-imidazole-4-sulfonamide], the EC50 is 200 to 1000 nM.

Take `O=S(=O)(CCC1CC1)Nc1c[nH]c2ccc(CCOc3ccc(C(F)(F)F)cc3)cc12` [Compound 112, 2-cyclopropyl-N-(5-(2-(4-(trifluoromethyl)phenoxy)ethyl)-1H-indol-3-yl)ethane-1-sulfonamide]: the 50% effective concentration (EC50) was 200 to 1000 nM.

On to `CCS(=O)(=O)Nc1c[nH]c2ccc(CCOc3ccc(C(F)(F)F)cc3)cc12` [Compound 113, N-(5-(2-(4-(trifluoromethyl)phenoxy)ethyl)-1H-indol-3-yl)ethanesulfonamide], for which the concentration for a half-maximal effect (EC50) fell in the range of 200 to 1000 nM.

In the case of `O=S(=O)(CC1CCC1)Nc1c[nH]c2ccc(CCOc3ccc(C(F)(F)F)cc3)cc12` [Compound 114, 1-cyclobutyl-N-(5-(2-(4-(trifluoromethyl)phenoxy)ethyl)-1H-indol-3-yl)methanesulfonamide], the EC50 fell in the range of 200 to 1000 nM.

Consider `O=S(=O)(Nc1c[nH]c2ccc(OCCc3ccc(C(F)(F)F)cc3)cc12)C1CCOCC1` [Compound 115, N-(5-(4-(trifluoromethyl)phenethoxy)-1H-indol-3-yl)tetrahydro-2H-pyran-4-sulfonamide], for which the EC50 lay within 200 to 1000 nM.

In the case of `Cn1ccc(S(=O)(=O)Nc2c[nH]c3ccc(OCCc4ccc(C(F)(F)F)cc4)cc23)n1` [Compound 116, 1-methyl-N-(5-(4-(trifluoromethyl)phenethoxy)-1H-indol-3-yl)-1H-pyrazole-3-sulfonamide], the EC50 is 200 to 1000 nM.

Consider `O=S(=O)(CC1CCCO1)Nc1c[nH]c2ccc(OCCc3ccc(C(F)(F)F)cc3)cc12` (centres unmarked) [Compound 117, 1-(tetrahydrofuran-2-yl)-N-(5-(4-(trifluoromethyl)phenethoxy)-1H-indol-3-yl)methanesulfonamide], for which the EC50 fell in the range of 200 to 1000 nM.

With `Cn1cnc(S(=O)(=O)Nc2c[nH]c3ccc(OCCc4ccc(C(F)(F)F)cc4)cc23)c1` [Compound 118, 1-methyl-N-(5-(4-(trifluoromethyl)phenethoxy)-1H-indol-3-yl)-1H-imidazole-4-sulfonamide], the EC50 was 200 to 1000 nM.

`O=S(=O)(CC1CCC1)Nc1c[nH]c2ccc(OCCc3ccc(C(F)(F)F)cc3)cc12` [Compound 119, 1-cyclobutyl-N-(5-(4-(trifluoromethyl)phenethoxy)-1H-indol-3-yl)methanesulfonamide]: the EC50 was 40 to 200 nM.

As to `O=S(=O)(CCC(F)(F)F)Nc1c[nH]c2ccc(OCCc3ccc(C(F)(F)F)cc3)cc12` [Compound 120, 3,3,3-trifluoro-N-(5-(4-(trifluoromethyl)phenethoxy)-1H-indol-3-yl)propane-1-sulfonamide], the EC50 was 200 to 1000 nM.

On to `CCS(=O)(=O)Nc1c[nH]c2ccc(OCCc3ccc(C(F)(F)F)cc3)cc12` [Compound 121, N-(5-(4-(trifluoromethyl)phenethoxy)-1H-indol-3-yl)ethanesulfonamide], for which the concentration for a half-maximal effect (EC50) was in the range of 200 to 1000 nM.

With `O=S(=O)(Cc1ccccc1)Nc1c[nH]c2ccc(OCCc3ccc(C(F)(F)F)cc3)cc12` [Compound 122, 1-phenyl-N-(5-(4-(trifluoromethyl)phenethoxy)-1H-indol-3-yl)methanesulfonamide], the 50% effective concentration (EC50) was 40 to 200 nM.

As for `COCCS(=O)(=O)Nc1c[nH]c2ccc(OCCc3ccc(C(F)(F)F)cc3)cc12` [Compound 123, 2-methoxy-N-(5-(4-(trifluoromethyl)phenethoxy)-1H-indol-3-yl)ethane-1-sulfonamide], the EC50 was 200 to 1000 nM.

Turning to `O=S(=O)(CC1CC1)Nc1c[nH]c2ccc(OCCc3ccc(C(F)(F)F)cc3)cc12` [Compound 124, 1-cyclopropyl-N-(5-(4-(trifluoromethyl)phenethoxy)-1H-indol-3-yl)methanesulfonamide], the EC50 is 40 to 200 nM.

For `O=S(=O)(CC1CCCO1)Nc1c[nH]c2ccc(CCOc3ccc(C(F)(F)F)cc3)cc12` (centres unmarked) [Compound 125, 1-(tetrahydrofuran-2-yl)-N-(5-(2-(4-(trifluoromethyl)phenoxy)ethyl)-1H-indol-3-yl)methanesulfonamide], the EC50 lay in the range of 200 to 1000 nM.

For the compound `O=S(=O)(CC1CC1)Nc1c[nH]c2ccc(CCOc3ccc(C(F)(F)F)cc3)cc12` [Compound 126, 1-cyclopropyl-N-(5-(2-(4-(trifluoromethyl)phenoxy)ethyl)-1H-indol-3-yl)methanesulfonamide], the EC50 is 200 to 1000 nM.

These data come from US20250084071A1, “COMPOUNDS AND COMPOSITIONS FOR TREATING CONDITIONS ASSOCIATED WITH STING ACTIVITY” (NOVARTIS PHARMA AG, priority 2022, published 2025).
